From PMC5059851, “Inhibition of Hedgehog-dependent tumors and cancer stem cells by a newly identified naturally occurring chemotype” (Cell Death & Disease, 2016) come the findings set out here.

The first assay concerns Hh pathway (Gli-responsive firefly luciferase reporter). The assay can be described thus: Hh-dependent Gli-luciferase reporter assay in SAG-treated NIH3T3 Shh-Light II cells. In kind it is cell-based. The note with it: SAG (200 nM)-treated NIH3T3 Shh-Light II cells, 48 h, normalized to Renilla; N.A. = Not Active. On the procedure:
The inhibitory properties of the potential Smo antagonists 1–17 were investigated in a luciferase reporter assay that is widely used for characterizing Hh inhibitors. NIH3T3 Shh-Light II cells, stably incorporating a Gli-responsive firefly luciferase reporter (Gli-RE),[25] were treated with the synthetic Smo agonist SAG[24] alone or in combination with the selected small molecules to evaluate their dose–response ability to suppress Hh pathway. […] We excluded the possibility that inhibition activity in this assay was mediated by cytotoxicity because no decrease was shown in the luciferase assay control Renilla as observed instead for 13–17.
The luciferase assay was performed in Shh-Light II cells, stably incorporating a Gli-responsive luciferase reporter and the pRL-TK Renilla (normalization control), treated for 48 h with SAG (200 nM) and the studied compounds. Luciferase and Renilla activity were assayed with a dual-luciferase assay system according to the manufacturer's instruction (Biotium Inc., Hayward, CA, USA). Results are expressed as luciferase/Renilla ratios and represent the mean±S.D. of three experiments, each performed in triplicate.
Consider `CC(C)=CCc1c(O)ccc(C(=O)[C@H]2[C@@H](c3c(O)cc(/C=C/c4ccc(O)cc4O)cc3O)C=C(C)C[C@@H]2c2ccc(O)cc2O)c1O` [Compound 8, [2,4-dihydroxy-3-(3-methyl-2-buten-1-yl)phenyl][(1R,2S,6S)-6-(2,4-dihydroxyphenyl)-2-{4-[(E)-2-(2,4-dihydroxyphenyl)vinyl]-2,6-dihydroxyphenyl}-4-methyl-3-cyclohexen-1-yl]methanone], for which the IC50 was 27.5 ± 2.67 µM.

For the compound “3-benzo[1,3]dioxol-5-yl-1-(2,4,5-trimethoxy-phenyl)-propan-1-one [Compound 7]”, the IC50 amounted to 38.5 ± 3.57 µM.

With `COc1cc(OC)c2c(=O)c(-c3ccc4c(c3)OCO4)coc2c1` [Compound 9, 3-(1,3-benzodioxol-5-yl)-5,7-dimethoxy-4H-chromen-4-one], the IC50 stood at 24.1 ± 1.6 µM.

Regarding `CC1=C[C@@H]2c3c(O)cc(/C=C/c4ccc(O)cc4O)cc3OC3(c4ccc(O)c5c4OC(C)(C)C=C5)Oc4cc(O)ccc4[C@@H](C1)[C@H]23` (stereo partly drawn) [Compound 6, (3aS,13bS,13cR)-6-[(E)-2-(2,4-dihydroxyphenyl)vinyl]-8a-(5-hydroxy-2,2-dimethyl-2H-chromen-8-yl)-2-methyl-1,8a,13b,13c-tetrahydro-3aH-benzo[3,4]isochromeno[1,8-bc]chromene-4,11-diol], the IC50 is 30 ± 1.93 µM.

On to `COc1ccc(C=CC(=O)c2c(OC)cc(OC)c(OC)c2OC)cc1OC` [Compound 10, 3-(3,4-dimethoxy-phenyl)-1-(2,3,4,6-tetramethoxy-phenyl)-2-propen-1-one], for which the IC50 turned out to be 31.3 ± 2.29 µM.

As for `COc1c(C2COc3cc(O)c(CC=C(C)C)c(O)c3C2=O)ccc(O)c1CC=C(C)C` (stereo not shown) [Compound 11, 5,7-dihydroxy-3-[4-hydroxy-2-methoxy-3-(3-methyl-2-buten-1-yl)phenyl]-6-(3-methyl-2-buten-1-yl)-2,3-dihydro-4H-chromen-4-one], the IC50 was found to be 22.6 µM.

In another assay the target is T1, human Smo D473H (Homo sapiens, UniProt Q99835, D473H).
T1 construct: Myc-DDK; expressed in transfected cells; host or cells: HEK293T
T1 sequence (Q99835 28-787 D473H): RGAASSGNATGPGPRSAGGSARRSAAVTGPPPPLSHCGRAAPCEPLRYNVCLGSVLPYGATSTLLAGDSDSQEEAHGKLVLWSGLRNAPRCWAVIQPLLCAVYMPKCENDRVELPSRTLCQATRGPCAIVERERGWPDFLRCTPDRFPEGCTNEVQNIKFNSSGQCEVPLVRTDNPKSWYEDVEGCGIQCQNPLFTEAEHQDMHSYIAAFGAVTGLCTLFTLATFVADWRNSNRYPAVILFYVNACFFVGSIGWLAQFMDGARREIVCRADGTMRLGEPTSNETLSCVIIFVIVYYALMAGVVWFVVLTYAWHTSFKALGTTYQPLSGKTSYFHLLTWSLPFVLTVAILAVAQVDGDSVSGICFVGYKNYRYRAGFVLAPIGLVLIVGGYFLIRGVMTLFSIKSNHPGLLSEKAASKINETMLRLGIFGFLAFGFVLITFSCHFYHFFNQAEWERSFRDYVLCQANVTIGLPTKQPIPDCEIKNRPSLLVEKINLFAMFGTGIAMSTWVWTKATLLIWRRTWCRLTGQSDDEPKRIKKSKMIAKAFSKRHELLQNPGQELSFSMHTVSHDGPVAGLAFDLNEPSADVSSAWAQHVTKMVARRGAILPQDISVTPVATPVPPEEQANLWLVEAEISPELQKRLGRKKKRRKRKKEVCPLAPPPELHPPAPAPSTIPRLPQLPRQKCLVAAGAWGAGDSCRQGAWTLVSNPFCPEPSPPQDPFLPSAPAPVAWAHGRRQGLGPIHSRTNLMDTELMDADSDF
Nature of the assay: Bodipy-Cyclopamine (BC) binding assay, HEK293T cells transfected with human Smo D473H. The note with it: resistant Smo mutants versus WT. On the procedure: Cells were washed in PBS supplemented with 0.5% fetal bovine serum, fixed in 4% paraformaldehyde in phosphate-buffered saline (PBS) for 10 min, and incubated for 2 h at 37 °C both in the same medium supplemented with Bodipy-Cyclopamine (5 nM) and the studied compounds. The cells were permeabilized with Triton X100 (Sigma) 0.2%. Dako Fluorescent mounting (Dako, Carpinteria, CA, USA) was used as mounting medium and Hoechst reagent for staining of the cell nuclei. Bodipy (green) and Hoechst (blue) signals were analyzed in three to four representative fields per coverslip (× 20 magnification, 1000 cells/field). Data were expressed as percentage of BC incorporation observed with BC alone.[95]
As for `CS(=O)(=O)c1ccc(C(=O)Nc2ccc(Cl)c(-c3ccccn3)c2)c(Cl)c1` [Vismodegib, reference compound], the “loss of affinity for the resistant Smo mutants in binding assay” value is “about 1000 fold”.
